# From patent publication US6339160B1 (priority 1997, dated 2002)
# How the values were obtained:
# [1] = molecular target: T1, Gelatinase A (MMP-2) (Homo sapiens, UniProt P08253); assay: Inhibition of the human enzyme Gelatinase A (MMP-2), fluorescent substrate; type: biochemical; conditions: expressed qualitatively; compounds incubated 3 hours at room temperature with enzyme before substrate
# T1 construct: G. Murphy (Strangeways Labs., Cambridge, UK); host or cells: human cultures
# T1 sequence (P08253 110-660): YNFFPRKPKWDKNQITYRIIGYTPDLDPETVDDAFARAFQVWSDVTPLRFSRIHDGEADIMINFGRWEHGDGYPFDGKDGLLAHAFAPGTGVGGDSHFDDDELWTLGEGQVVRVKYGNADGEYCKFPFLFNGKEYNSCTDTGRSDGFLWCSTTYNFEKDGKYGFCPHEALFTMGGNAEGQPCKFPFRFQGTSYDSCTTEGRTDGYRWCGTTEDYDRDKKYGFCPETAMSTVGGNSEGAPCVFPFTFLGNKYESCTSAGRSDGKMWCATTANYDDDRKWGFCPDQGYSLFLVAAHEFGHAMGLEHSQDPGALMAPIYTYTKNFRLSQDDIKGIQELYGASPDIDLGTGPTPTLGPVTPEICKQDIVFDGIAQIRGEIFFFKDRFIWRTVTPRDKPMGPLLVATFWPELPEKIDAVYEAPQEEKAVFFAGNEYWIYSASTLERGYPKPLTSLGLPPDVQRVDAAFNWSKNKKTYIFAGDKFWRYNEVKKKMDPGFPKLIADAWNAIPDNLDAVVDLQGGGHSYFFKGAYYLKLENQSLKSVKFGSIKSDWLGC
# Experimental: (§1) The snythetized compounds were also tested on the enzyme of human orgin Gelatinase A, known also as MMP-2 (Matrix Metalloproteinase n. 2). The pure enzyme, extracted from human cultures and obtained from Pro. G. Murphy (Strangeways Labs., Cambridge, UK), was first activated with p-amino-mercuryacetate, and proteolytic activity was evidentiated with the use of an artificial fluorescent substratum MCA-PRO-LEU-GLY-LEU-DPA-ALA-ARG-NH2 (Strangeways Labs.), in spectrofluorimeter Perkin Elmer L 50B fixed at 328 nm for excitation and 393 nm for emission. To test inhibitory activity, synthetized compounds were incubated for 3 hours at room temperature in the presence of the enzyme, before adding the substratum.
# [2] = molecular target: Adamalysin II (Crotalus adamanteus, UniProt P34179); assay: biochemical
# [3] = molecular target: T2, Collagenase from neutrophiles (MMP-8) (Homo sapiens, UniProt P22894); assay: Inhibition of human enzyme Collagenase from neutrophiles (MMP-8), fluorescent substrate; type: biochemical; conditions: expressed qualitatively; enzyme activated with p-aminomercuryacetate
# T2 construct: G. Murphy (Strangeways Labs., Cambridge, UK); host or cells: human cell cultures
# Experimental: as §1
# The new synthetized derivatives were also tested on another zinc-dependent metalloproteinase of human orgin: the Collagenase from neutrophiles, also known as MMP-8 (Matrix Metalloproteinase N. 8). The pure enzyme extracted from human cell cultures and obtained from Prof. G. Murphy (Strangeways Labs., Cambridge, UK), was activated with p-aminomercuryacetate (2 hours at 37° C.), and enzymatic activity was followed by the spectrofluorimeter in the same way as described in the previous chapter.
# T2 sequence (P22894 101-467): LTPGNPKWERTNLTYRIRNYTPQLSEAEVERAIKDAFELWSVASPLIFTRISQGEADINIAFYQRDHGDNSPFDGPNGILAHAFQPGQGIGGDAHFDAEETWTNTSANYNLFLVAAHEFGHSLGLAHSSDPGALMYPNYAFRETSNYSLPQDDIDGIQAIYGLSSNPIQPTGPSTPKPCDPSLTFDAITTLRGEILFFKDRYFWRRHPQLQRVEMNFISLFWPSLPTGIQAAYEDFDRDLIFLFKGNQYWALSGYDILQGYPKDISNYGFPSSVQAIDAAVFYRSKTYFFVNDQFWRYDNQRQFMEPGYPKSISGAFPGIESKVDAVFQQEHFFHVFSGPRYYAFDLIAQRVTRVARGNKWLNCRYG
# Chain of Adamalysin II (P34179 whole entry, looked up): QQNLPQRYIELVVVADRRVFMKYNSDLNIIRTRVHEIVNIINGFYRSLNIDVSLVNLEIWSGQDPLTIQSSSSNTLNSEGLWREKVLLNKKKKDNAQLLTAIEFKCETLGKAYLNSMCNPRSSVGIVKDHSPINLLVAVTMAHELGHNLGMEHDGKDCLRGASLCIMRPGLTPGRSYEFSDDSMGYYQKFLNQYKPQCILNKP
SMILES,INHIBITION [1],IC50 [2] [nM],INHIBITION [3]
"CCOP(=O)(OCC)C(Cc1c[nH]c2ccccc12)NC(=O)[C@H](CC(C)C)NC(=O)[C@@H]1CSC(=O)N1 (stereo partly drawn) [Compound n.3f, N-{[(R)-(2-oxo-thiazolidine-4-yl)carbonyl]}-L-leucyl-(1)-phosphotryptophan diethylester]",Fair,1000,Good
"CCOP(=O)(OCC)C(Cc1c[nH]c2ccccc12)NC(=O)[C@H](CC(C)C)NC(=O)c1ccco1 (stereo partly drawn) [Compound n.3a, N-[(furan-2-yl)carbonyl]-L-leucyne-(1)-phosphotryptophan diethylester]",Fair,400,Fair
"CCOP(=O)(OCC)C(Cc1c[nH]c2ccccc12)NC(=O)[C@H](CC(C)C)NC(=O)[C@@H]1CCC(=O)O1 (stereo partly drawn) [Compound n.3e, N-{[(S)-(5-oxo-tetrahydrofuran-2-yl)carbonyl]}-L-leucyl-(1)-phosphotryptophan diethylester]",Fair,550,Fair
"CC(C)C[C@H](NC(=O)c1ccco1)C(=O)NC(Cc1c[nH]c2ccccc12)P(=O)(OCc1ccccc1)OCc1ccccc1 (stereo partly drawn) [Compound n.9, N-[(Furan-2-yl)carbonyl]-L-leucyl-(1)-phosphotryptophan dibenzylester]",None,7200,Fair
"CCOP(=O)(OCC)C(Cc1c[nH]c2ccccc12)NC(=O)[C@H](CC(C)C)NC(=O)c1ccc[nH]1 (stereo partly drawn) [Compound n.3b, N-[(Pyrrol-2-yl)carbonyl]-L-leucyl-(1)-phosphotryptophan diethylester]",Good,220,Good
"CCOP(=O)(OCC)C(Cc1c[nH]c2ccccc12)NC(=O)[C@H](CC(C)C)NC(=O)[C@@H]1CCCN1C(=O)OCc1ccccc1 (stereo partly drawn) [Compound n.3c, N-benzyloxycarbonyl-L-pyrolyl-L-eucyl-(1)-phosphtryptophan diethylester]",Good,22000,Good
